Reference: patent US20230002377A1, “THERAPEUTIC COMBINATIONS OF DRUGS AND METHODS OF USING THEM” (HARMONY BIOSCIENCES, LLC, priority 2020, published 2023)
Several values for one entry are separate records, joined by “and”; a condition that tells them apart may be missing. Equal values may be shown once. Read-outs that look alike come from different tables or passages of the source.

Columns and labels:
[1] = 14-day once-a-day oral multiple ascending dose PK study, day-14 data; format: in vivo, human; settings: for Cmax: read-out: Formula I plasma concentration (Cmax); for concentration at 0 h: day 14, blood draw at 0 h (pre-dose trough)
Method: (§1) A LC-MS/MS method was developed and validated for the quantitation of Formula I in 0.250 mL of human EDTA plasma in a total of 7 runs, out of which 1 run was rejected. The method utilized stable labeled Formula I as an internal standard. After the addition of the internal standard (equivalent to 285.4 ng/mL in human EDTA plasma) and 0.250 mL of each quality control (QC) sample and calibration standard, 0.525 mL of methyl t-butyl ether (MTBE) was added to the 96-well sample tubes. The organic layer was removed and evaporated to dryness using a liquid-liquid extraction (LLE). The residue was reconstituted and injected into the LC-MS/MS system. Chromatographic separation was achieved through gradient elution on an Acquity UPLC, BEH Shield RP18™, 50×2.1 mm, 1.7 μm particle size column. The mobile phase contained water, acetonitrile, ammonium formate, and formic acid. Detection was accomplished using a Sciex API 4000 tandem mass spectrometer in positive ion electrospray SRM mode. The standard curves, which ranged from 1.00 to 1000 ng/mL for Formula I, were fitted to a 1/×2 weighted linear regression model. The intra-assay precisions, based on four levels of analytical QCs (low, mid, GM, and high), were within 4.2% CV and inter-assay precisions were within 7.2% CV for the analyte. The assay accuracy, expressed as % DEV, was within 6.4% of the nominal concentration values for the analyte. […] The LLOQ response ratio, when compared to the QCO response ratio, was >, 5 in all matrix lots. The analyte was stable in human EDTA plasma for at least 24 h at room temperature, for at least 14 days at −20° C., and following at least 3 freeze-thaw cycles. The processed samples were stable for 72 hours (h) at room temperature.
Tabulated, day-14 PK data (Cmax, Ctrough and AUC) for healthy humans in a 14-day, once-a-day oral dosing, multiple ascending dose study of compound of Formula I.

[2] = Stability of Formula I in human EDTA plasma (LC-MS/MS validation); format: in vitro ADME
Method: as §1

[3] = biological target: T1, serotonin transporters (SERT) (Homo sapiens, UniProt P31645); assay: PET study of SERT occupancy with 11C-MADAM in healthy male volunteers; format: in vivo; settings: read-out: SERT RO %; for receptor occupancy at 10 mg: 10 mg once a day; for receptor occupancy at 30 mg: 30 mg once a day; for receptor occupancy at 45 mg: 45 mg once a day (30 mg for 3 days first); for receptor occupancy at 60 mg: 60 mg once a day (30 mg for 3 days first)
T1 construct: evaluate in healthy male volunteers with respect to safety, tolerability and pharmacokinetics as well as DAT and SERT occupancy; from tissue; host or cells: living human brain (striatum, thalamus), PET in healthy male volunteers
Description: The PET study was a part of a strategy in previous clinical development of the compound of formula I to evaluate in healthy male volunteers with respect to safety, tolerability and pharmacokinetics as well as DAT and SERT occupancy.
The relationship between plasma the compound of formula I concentration and SERT occupancies, using the individual values, is presented in FIG. 8 and FIG. 9. The numeric values for the individual SERT and […] occupancy and the corresponding plasma concentrations are tabulated in Example 12.
(§2) Striatal receptor occupancy at dopamine transporters (DAT) and serotonin transporters (SERT) with plasma concentrations of Formula I at the midpoint time of the post dosing PET (positron emission tomography) scans (T=4 and 24) after once-a-day multiple doses of 3-60 mg and 10-60 mg for SERT and DAT healthy male cohorts, respectively (Tables below, RO stands for receptor occupancy). Post dosing PET scans were conducted at day 10 (4 h post last dose) and day 14 (24 h post last dose) assuming steady state conditions, using the specific DAT and SERT tracers ^11C-PE2I and ^11C-MADAM, respectively. For 45 mg and 60 mg cohorts, there was titration by administration of 30 mg for 3 days and then from day 4 the specified dose. Representative reports on using these two tracers are Leamed-Coughlin S M et al, Biol Psychiatry. 2003, 54(8):800-5; Jucaite A et al, Eur J Nucl Med Mol Imaging. 2006, 33(6):657-68; and Lundberg J et al, Int J Neuropsychopharmacol. 2007, 10(6):777-85.

[4] = biological target: Transporter, Dopamine (DAT) (Homo sapiens, UniProt Q01959); assay: DAT radioligand binding ([125I] RTI-55), Eurofins; settings: read-out: DAT, % inhibition, 10 nM compound
Method: Source: Human recombinant CHO—S cells;
Incubation Time/Temp: 3 hours @ 4° C.;
Incubation Buffer: 50 mM Tris-HCl, pH 7.4, 100 mM NaCl, 1 μM Leupeptin, 10 μM PMSF;
Non-Specific Ligand: 10.0 μM Nomifensine;
Specific Binding: 90% (Historical Values);
Quantitation Method: Radioligand Binding;

[5] = biological target: T2, dopamine transporters (DAT) (Homo sapiens, UniProt Q01959); assay: PET study of striatal DAT occupancy with 11C-PE2I in healthy male volunteers; format: in vivo
T2 construct: evaluate in healthy male volunteers with respect to safety, tolerability and pharmacokinetics as well as DAT and SERT occupancy; from tissue; host or cells: living human brain (striatum), PET in healthy male volunteers
Description: The PET study was a part of a strategy in previous clinical development of the compound of formula I to evaluate in healthy male volunteers with respect to safety, tolerability and pharmacokinetics as well as DAT and SERT occupancy. […]
as §2

[6] = Plasma concentration of Formula I at midpoint time of post dosing PET scans; format: in vivo; settings: male, human; for concentration at 24 h: day 14, 24 h post last dose
Description: In alternative embodiments, provided are methods comprising administering a drug in an amount sufficient to achieve a therapeutic level range of plasma concentration (optionally human plasma concentration) at a steady state, and this example describes an exemplary analytical method to determine the concentration of Formula I in human plasma using an LC-MS-MS method known to the people skilled in the art, and an exemplary bioanalysis method to determine the concentration of formula I in human EDTA plasma.
as §1, §2

[7] = 24 h, day 14, 24 h post last dose

T2 sequence (Q01959 whole entry): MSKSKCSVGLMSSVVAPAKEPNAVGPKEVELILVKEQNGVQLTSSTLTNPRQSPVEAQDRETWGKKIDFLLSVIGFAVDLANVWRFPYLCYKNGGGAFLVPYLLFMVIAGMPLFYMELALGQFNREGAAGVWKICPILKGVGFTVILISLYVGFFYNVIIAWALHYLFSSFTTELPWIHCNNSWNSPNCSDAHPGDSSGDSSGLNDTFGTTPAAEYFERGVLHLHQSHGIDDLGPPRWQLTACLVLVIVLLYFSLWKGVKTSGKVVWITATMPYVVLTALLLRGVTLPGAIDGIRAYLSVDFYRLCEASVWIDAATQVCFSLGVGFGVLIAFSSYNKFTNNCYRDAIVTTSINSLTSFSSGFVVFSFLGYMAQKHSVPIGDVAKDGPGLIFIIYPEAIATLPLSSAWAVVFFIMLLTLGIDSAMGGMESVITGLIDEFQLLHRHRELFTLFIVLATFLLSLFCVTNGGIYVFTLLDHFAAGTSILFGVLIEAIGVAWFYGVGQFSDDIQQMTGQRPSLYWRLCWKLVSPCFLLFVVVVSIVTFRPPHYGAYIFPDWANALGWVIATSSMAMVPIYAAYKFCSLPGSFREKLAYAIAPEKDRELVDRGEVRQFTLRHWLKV
T1 sequence (P31645 whole entry): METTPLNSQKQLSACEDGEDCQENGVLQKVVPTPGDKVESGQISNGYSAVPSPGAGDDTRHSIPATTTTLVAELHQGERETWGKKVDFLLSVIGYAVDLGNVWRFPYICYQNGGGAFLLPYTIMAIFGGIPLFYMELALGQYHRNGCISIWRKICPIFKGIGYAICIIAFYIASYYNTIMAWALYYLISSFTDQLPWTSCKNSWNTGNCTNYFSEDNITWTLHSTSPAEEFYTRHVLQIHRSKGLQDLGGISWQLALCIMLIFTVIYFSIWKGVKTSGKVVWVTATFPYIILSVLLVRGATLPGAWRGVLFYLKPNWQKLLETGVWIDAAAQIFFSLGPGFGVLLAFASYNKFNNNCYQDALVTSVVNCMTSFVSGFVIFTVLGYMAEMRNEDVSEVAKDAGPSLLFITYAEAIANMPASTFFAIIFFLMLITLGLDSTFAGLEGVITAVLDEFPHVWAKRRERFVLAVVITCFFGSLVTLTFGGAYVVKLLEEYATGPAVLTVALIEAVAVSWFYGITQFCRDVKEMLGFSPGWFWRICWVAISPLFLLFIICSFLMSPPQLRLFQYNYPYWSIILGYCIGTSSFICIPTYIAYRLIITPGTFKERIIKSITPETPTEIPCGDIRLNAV
Chain of Transporter, Dopamine (DAT) (Q01959 whole entry): as the sequence (Q01959 whole entry) above

Clc1ccc(C2CNCc3cc(-c4ccc5ncnn5c4)ccc32)cc1Cl (stereo not shown) [Formula I, 7-([1,2,4]triazolo[1,5-a]pyridin-6-yl)-4-(3,4-dichlorophenyl)-1,2,3,4-tetrahydroisoquinoline]
Formula I plasma concentration ([1]; 3 mg daily, male, day 14, draw at about 23-24 h (Ctrough)): 42 ng/mL
Cmax ([1]; female, human, plasma, oral, 45 mg, 45 mg daily, day 14, draw flagged Cmax (1-3 h)): 1.68 µg/mL
concentration at 0 h ([1]; female, human, plasma, oral, 45 mg, 45 mg daily, female, read-out: Formula I plasma concentration): 0.997 µg/mL
concentration at 24 h ([1]; female, human, plasma, oral, 45 mg, 45 mg daily, female, day 14, draw at about 24 h (Ctrough), read-out: Formula I plasma concentration): 0.901 µg/mL
AUC ([1]; female, human, plasma, oral, 45 mg, 45 mg daily, female, day 14, printed in the 24 h draw line): 10.1 µg·h/mL
concentration at 0 h ([1]; male, human, plasma, oral, 3 mg, 3 mg daily, male, read-out: Formula I plasma concentration): 0.042 µg/mL
Cmax ([1]; male, human, plasma, oral, 3 mg, 3 mg daily, male, day 14, draw flagged Cmax (1-3 h)): 0.066 µg/mL
AUC ([1]; male, human, plasma, oral, 3 mg, 3 mg daily, male, day 14, printed in the 23-24 h draw line): 0.439 µg·h/mL
Cmax ([1]; male, human, plasma, oral, 10 mg, 10 mg daily, day 14, draw flagged Cmax (1-3 h)): 0.218 µg/mL
concentration at 0 h ([1]; male, human, plasma, oral, 10 mg, 10 mg daily, male, read-out: Formula I plasma concentration): 0.125 µg/mL
AUC ([1]; male, human, plasma, oral, 10 mg, 10 mg daily, male, day 14, printed in the 23-24 h draw line): 1.26 µg·h/mL
Cmax ([1]; male, human, plasma, oral, 45 mg, 45 mg daily, day 14, draw flagged Cmax (1-2 h)): 1.15 µg/mL
concentration at 0 h ([1]; male, human, plasma, oral, 45 mg, 45 mg daily, male, read-out: Formula I plasma concentration): 0.635 µg/mL
concentration at 23 h ([1]; male, human, plasma, oral, 45 mg, 45 mg daily, male, day 14, draw at 23 h (Ctrough), read-out: Formula I plasma concentration): 0.672 µg/mL
AUC ([1]; male, human, plasma, oral, 45 mg, 45 mg daily, male, day 14, printed in the 23 h draw line): 6.28 µg·h/mL
stable in human EDTA plasma ([2]; freeze-thaw): at least 3 freeze-thaw cycles
stable in human EDTA plasma ([2]; room temperature): at least 24 h
stable in human EDTA plasma ([2]; −20° C.): at least 14 days
receptor occupancy at 10 mg ([3]; 4 h, day 10, 4 h post dose): 53%
receptor occupancy at 30 mg ([3]; 4 h, day 10, 4 h post dose): 71%
receptor occupancy at 45 mg ([3]; 4 h, day 10, 4 h post dose): 73%
receptor occupancy at 60 mg ([3]; 4 h, day 10, 4 h post dose): 70%
receptor occupancy at 10 mg [3, 7]: 47%
receptor occupancy at 30 mg [3, 7]: 69%
receptor occupancy at 45 mg [3, 7]: 73%
receptor occupancy at 60 mg [3, 7]: 76%
inhibition at 0.01 µM [4]: 47%
DAT RO % ([5]; 10 mg once a day, day 10, 4 h post dose): 12% and 21% and 18%
DAT RO % ([5]; 30 mg once a day, day 10, 4 h post dose): 22% and 43% and 36%
DAT RO % ([5]; 30 mg once a day, day 14, 24 h post last dose): 26% and 23% and 43%
DAT RO % ([5]; 45 mg once a day (30 mg for 3 days first), day 10, 4 h post dose): 42% and 44% and 48%
DAT RO % ([5]; 45 mg once a day (30 mg for 3 days first), day 14, 24 h post last dose): 36% and 41% and 43%
DAT RO % ([5]; 60 mg once a day (30 mg for 3 days first), day 10 (subject 77: day 11), 4 h post dose): 60% and 59%
DAT RO % ([5]; 60 mg once a day (30 mg for 3 days first), day 14, 24 h post last dose): 48% and 49%
DAT occupancy ([5]; following multiple doses of 60 mg): up to 60%
concentration at 4 h ([6]; 3 mg, SERT cohort, 3 mg once a day, day 10, 4 h post dose): 0.068 µg/mL
concentration at 24 h ([6]; 3 mg, SERT cohort, 3 mg once a day): 0.052 µg/mL
concentration at 4 h ([6]; 10 mg, DAT cohort, 10 mg once a day, day 10, 4 h post dose): 0.204 µg/mL
concentration at 24 h ([6]; 10 mg, DAT cohort, 10 mg once a day): 0.141 µg/mL
concentration at 4 h ([6]; 10 mg, SERT cohort, 10 mg once a day, day 10, 4 h post dose): 0.201 µg/mL
concentration at 24 h ([6]; 10 mg, SERT cohort, 10 mg once a day): 0.127 µg/mL
concentration at 4 h ([6]; 30 mg, SERT cohort, 30 mg once a day, day 10, 4 h post dose): 0.691 µg/mL
concentration at 24 h ([6]; 30 mg, SERT cohort, 30 mg once a day): 0.668 µg/mL
concentration at 4 h ([6]; 45 mg, DAT cohort, 45 mg once a day (30 mg for 3 days first), day 10, 4 h post dose): 0.809 µg/mL
concentration at 24 h ([6]; 45 mg, DAT cohort, 45 mg once a day (30 mg for 3 days first)): 0.647 µg/mL
concentration at 4 h ([6]; 45 mg, SERT cohort, 45 mg once a day (30 mg for 3 days first), day 10, 4 h post dose): 1.16 µg/mL
concentration at 24 h ([6]; 45 mg, SERT cohort, 45 mg once a day (30 mg for 3 days first)): 0.94 µg/mL
concentration at 4 h ([6]; 60 mg, DAT cohort, 60 mg once a day (30 mg for 3 days first), day 10 (subject 77: day 11), 4 h post dose): 1.34 µg/mL
concentration at 24 h ([6]; 60 mg, DAT cohort, 60 mg once a day (30 mg for 3 days first)): 0.92 µg/mL
